These results are taken from patent US20120309739A1, “AKT / PKB INHIBITORS” (ALMAC DISCOVERY LIMITED, priority 2009, published 2012).

Common to all, as to type: biochemical
For one assay, the target named is T1, AKT1 (Homo sapiens, UniProt P31749).
T1 construct: purchased SignalChem
Briefly: AKT Kinase Assay (IMAP fluorescent polarisation) vs AKT1. Conditions: activated AKT1, FAM Crosstide substrate. Here is the method: (§1) Testing of the compounds was performed using an AKT Kinase Assay:
(§2) Activated AKT isoforms 1, 2 and 3 were assayed utilising a 5′ FAM Crosstide (Seq. GRPRTSSFAEG-OH). The extent of kinase phosphorylation was determined by fluorescent polarisation using IMAP progressive binding reagent, which introduces binding beads which allow the reagent to specifically bind to phosphate residues via covalent co-ordination complex bonds.
(§3) iMAP binding solution stops Crosstide/kinase interaction and specifically binds phosphorylated substrates. The degree of phosphorylation is determined by fluorescent polarisation (excitation 485 nm; emission 528 nm) or the reduction in speed of rotation of the excited substrate.
(§4) The following materials were used in the assay: • a) Activated AKT isoforms (SignalChem.) dissolved in Complete Reaction buffer at a pre-determined concentration selected so that the assay was carried out in the linear range. • b) AKT substrate peptide: FAM Crosstide (R7110) Molecular Devices, diluted in complete reaction buffer. • c) iMAP Progressive Screening Express Kit (R8127) Molecular Devices • d) Complete Reaction Buffer containing 0.1% BSA, 10 mM Tris-HCl, 10 mM MgCl2, 0.05% NaN3 and 0.01% phosphate free BSA, 1 mM DTT • e) Progressive Binding Solution containing 75% Buffer A, 25% Buffer B and low volume Binding Reagent which contains the binding entity for the assay • f) ATP diluted in complete reaction buffer • g) Black polystyrene 384 well assay plates (Nunc). • h) Biotek Synergy 4 Hybrid Plate reader.
(§5) 50 μl of test compound was dissolved in DMSO (Sigma Aldrich) and serially diluted in complete reaction buffer to give a fourteen point half log dose response and plated into 384 well black plates. The compound was incubated at room temperature with activated AKT isoform ([…]) at the pre-determined concentration, for 45 minutes.
(§6) […] of ATP solution mixed with 2.5 μl of AKT substrate peptide (FAM Crosstide (R7110) Molecular Devices) were dispensed into each well and the plate centrifuged at 1000 rpm for 20 seconds to ensure homogenous mixing of reagents. The reaction mix was incubated in the dark for one hour at room temperature.
(§7) The kinase reaction was stopped by the addition of Progressive Binding Solution and the mixture allowed to equilibrate for one hour in the dark, at room temperature.
(§8) The fluorescent polarisation generated in each well was determined using a […] Synergy 4 Hybrid plate reader. In brief, each reaction solution was excited at 485 nm with the emission measured at 528 nm in both the parallel and perpendicular pathway.
(§9) The polarisation value generated in each well was calculated by Gen5 software (Biotek) and the % inhibition of kinase activity compared to vehicle control was calculated via GraphPad Prism. IC50 values for each compound were calculated by non-linear regression analysis using Prism software.
(§10) All plates were internally controlled by two methods. Firstly, by calculating the signal:noise ratio; based on kinase polarisation without inhibitor and polarisation generated by complete reaction buffer in the absence of activated kinase. Secondly by determining IC50 values generated by known inhibitors of the AKT isoforms.

A further assay deals with T2, AKT3 (Homo sapiens, UniProt Q9Y243).
T2 construct: purchased SignalChem
Nature of the assay: AKT Kinase Assay (IMAP fluorescent polarisation) vs AKT3. The settings on record: activated AKT3, FAM Crosstide substrate. How it is done:
as §1, §2, §3, §4, §5, §6, §7, §8, §9, §10

In the next assay the target is T3, AKT2 (Homo sapiens, UniProt P31751).
T3 construct: purchased SignalChem
Nature of the assay: AKT Kinase Assay (IMAP fluorescent polarisation) vs AKT2. The settings on record: activated AKT2, FAM Crosstide substrate. How it is done: as §1, §2, §3, §4, §5, §6, §7, §8, §9, §10

Where a name gives a salt, the structure may show the parent alone.

T2 sequence (Q9Y243 whole entry): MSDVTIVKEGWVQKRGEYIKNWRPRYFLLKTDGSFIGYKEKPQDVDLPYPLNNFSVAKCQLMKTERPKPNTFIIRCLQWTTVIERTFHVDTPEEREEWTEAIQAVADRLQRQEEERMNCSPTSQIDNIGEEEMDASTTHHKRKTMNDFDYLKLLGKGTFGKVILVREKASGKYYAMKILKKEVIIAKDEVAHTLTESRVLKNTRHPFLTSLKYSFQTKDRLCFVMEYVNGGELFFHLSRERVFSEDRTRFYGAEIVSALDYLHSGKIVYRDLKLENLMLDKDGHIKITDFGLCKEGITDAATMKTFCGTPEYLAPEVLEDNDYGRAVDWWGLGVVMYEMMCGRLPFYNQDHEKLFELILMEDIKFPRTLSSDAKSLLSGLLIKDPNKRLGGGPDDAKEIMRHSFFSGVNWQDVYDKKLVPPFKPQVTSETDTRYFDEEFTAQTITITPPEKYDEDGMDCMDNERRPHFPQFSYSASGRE
T3 sequence (P31751 whole entry): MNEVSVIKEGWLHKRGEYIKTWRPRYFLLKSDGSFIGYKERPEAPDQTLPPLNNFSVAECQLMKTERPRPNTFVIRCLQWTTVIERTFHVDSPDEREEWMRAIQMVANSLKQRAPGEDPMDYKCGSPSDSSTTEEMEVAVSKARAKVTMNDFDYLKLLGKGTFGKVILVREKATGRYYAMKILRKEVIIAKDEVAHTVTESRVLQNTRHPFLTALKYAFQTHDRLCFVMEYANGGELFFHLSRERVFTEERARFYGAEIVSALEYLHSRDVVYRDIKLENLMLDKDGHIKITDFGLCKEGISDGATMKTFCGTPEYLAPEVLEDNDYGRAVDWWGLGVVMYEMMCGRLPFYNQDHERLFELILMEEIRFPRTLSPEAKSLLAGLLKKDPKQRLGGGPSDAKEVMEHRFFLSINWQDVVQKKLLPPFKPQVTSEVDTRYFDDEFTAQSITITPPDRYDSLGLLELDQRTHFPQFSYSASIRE
T1 sequence (P31749 whole entry): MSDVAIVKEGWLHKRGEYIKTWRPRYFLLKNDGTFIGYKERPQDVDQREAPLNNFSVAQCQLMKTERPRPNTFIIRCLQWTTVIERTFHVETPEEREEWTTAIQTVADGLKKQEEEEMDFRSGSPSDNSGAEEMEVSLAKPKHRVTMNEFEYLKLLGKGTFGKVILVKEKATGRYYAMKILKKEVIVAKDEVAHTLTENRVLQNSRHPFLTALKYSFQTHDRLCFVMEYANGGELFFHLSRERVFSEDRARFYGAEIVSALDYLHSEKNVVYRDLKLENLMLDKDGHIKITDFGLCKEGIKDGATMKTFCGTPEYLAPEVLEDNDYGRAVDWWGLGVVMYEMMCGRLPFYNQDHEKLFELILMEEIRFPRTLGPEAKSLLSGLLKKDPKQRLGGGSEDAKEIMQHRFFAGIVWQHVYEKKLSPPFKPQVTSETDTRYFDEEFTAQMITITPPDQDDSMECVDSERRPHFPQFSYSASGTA

Take `CCNc1nc2oc(-c3ccc(C4(N)CCC4)cc3)c(-c3ccccc3)c2c(=O)n1C` [Example 88, 6-(4-(1-Aminocyclobutyl)phenyl)-2-(ethylamino)-3-methyl-5-phenylfuro[2,3-d]pyrimidin-4(3H)-one, HCl]: the half-maximal inhibitory concentration (IC50) at AKT1 was 100 to 1000 nM; on AKT3, 1000 to 10000 nM; on AKT2, not above 100 nM.
In the case of `CSc1nc2oc(-c3ccc(C4(N)CCC4)cc3)c(-c3ccccc3)c2c(=O)n1CC#N` [Example 96, 2-(6-(4-(1-Aminocyclobutyl)phenyl)-2-(methylthio)-4-oxo-5-phenylfuro[2,3-d]pyrimidin-3(4H)-yl)acetonitrile], the IC50 was not above 100 nM at AKT1, 1000 to 10000 nM on AKT3 and not above 100 nM at AKT2.
With `NC1(c2ccc(-c3oc4nc(N5CCOCC5)ncc4c3-c3ccccc3)cc2)CCC1` [Example 52, 1-(4-(2-Morpholino-5-phenylfuro[2,3-d]pyrimidin-6-yl)phenyl)cyclobutanamine], the 50% inhibitory concentration (IC50) is 1000 to 10000 nM on AKT1, more than 10000 nM on AKT3 and 100 to 1000 nM at AKT2.
The matching figures for `COCCNc1nc(OC)c2c(-c3ccccc3)c(-c3ccc(C4(N)CCC4)cc3)oc2n1` [Example 42, 6-(4-(1-Aminocyclobutyl)phenyl)-4-methoxy-N-(2-methoxyethyl)-5-phenylfuro[2,3-d]pyrimidin-2-amine]: 100 to 1000 nM, more than 10000 nM and 100 to 1000 nM.
Turning to `CSc1cnc2c(-c3ccccc3)c(-c3ccc(C4(N)CCC4)cc3)[nH]c2n1` [Example 153, 1-(4-(3-(Methylthio)-7-phenyl-5H-pyrrolo[3,2-b]pyrazin-6-yl)phenyl)cyclobutanamine], the 50% inhibitory concentration (IC50) was 100 to 1000 nM on AKT1, more than 10000 nM at AKT3 and 100 to 1000 nM at AKT2.
In the case of `NC(=O)c1cccc(-c2cnc3oc(-c4ccc(C5(N)CCC5)cc4)c(-c4ccccc4)c3n2)c1` [Example 152, 3-(6-(4-(1-Aminocyclobutyl)phenyl)-7-phenylfuro[2,3-b]pyrazin-2-yl)benzamide, HCl], the IC50 on AKT1 was 100 to 1000 nM; on AKT3, more than 10000 nM; on AKT2, 1000 to 10000 nM.
As to `NC1(c2ccc(-c3oc4nc(NCCO)n(CC(F)(F)F)c(=O)c4c3-c3ccccc3)cc2)CCC1` [Example 121, 6-(4-(1-Aminocyclobutyl)phenyl)-2-((2-hydroxyethyl)amino)-5-phenyl-3-(2,2,2-trifluoroethyl)furo[2,3-d]pyrimidin-4(3H)-one], the results for the IC50 at AKT1, on AKT3 and at AKT2 were 100 to 1000 nM, 1000 to 10000 nM and not above 100 nM, respectively.
On to `CCn1c(NCCO)nc2oc(-c3ccc(C4(N)CCC4)cc3)c(-c3ccccc3)c2c1=O` [Example 93, 6-(4-(1-Aminocyclobutyl)phenyl)-3-ethyl-2-((2-hydroxyethyl)amino)-5-phenylfuro[2,3-d]pyrimidin-4(3H)-one], for which the IC50 is 1000 to 10000 nM on AKT1, 1000 to 10000 nM on AKT3 and not above 100 nM at AKT2.
As for `C[C@H](O)CNc1nc2oc(-c3ccc(C4(N)CCC4)cc3)c(-c3ccccc3)c2c(=O)n1C` [Example 86, (S)-6-(4-(1-Aminocyclobutyl)phenyl)-2-((2-hydroxypropyl)amino)-3-methyl-5-phenylfuro[2,3-d]pyrimidin-4(3H)-one], the IC50 on AKT1 lay within 100 to 1000 nM; at AKT3, 1000 to 10000 nM; on AKT2, 100 to 1000 nM.
In the case of `CN(CCO)c1nc2oc(-c3ccc(C4(N)CCC4)cc3)c(-c3ccccc3)c2c(=O)n1C` [Example 84, 6-(4-(1-Aminocyclobutyl)phenyl)-2-((2-hydroxyethyl)(methyl)amino)-3-methyl-5-phenylfuro[2,3-d]pyrimidin-4(3H)-one], the IC50 at AKT1 was 1000 to 10000 nM; on AKT3, more than 10000 nM; on AKT2 it was 100 to 1000 nM.
Consider `CSc1nc2oc(-c3ccc(C4(N)CCC4)cc3)c(-c3ccccc3)c2c(=O)n1CC(N)=O` [Example 97, 2-(6-(4-(1-Aminocyclobutyl)phenyl)-2-(methylthio)-4-oxo-5-phenylfuro[2,3-d]pyrimidin-3(4H)-yl)acetamide], for which the figures for the 50% inhibitory concentration (IC50) on AKT1, at AKT3 and at AKT2 were 100 to 1000 nM, more than 10000 nM and 100 to 1000 nM, respectively.
As for `NC1(c2ccc(-c3oc4c(=O)[nH]ccc4c3-c3ccccc3)cc2)CCC1` [Example 128, 2-(4-(1-Aminocyclobutyl)phenyl)-3-phenylfuro[2,3-d]pyridin-7(6H)-one], the IC50 lay in the range of 100 to 1000 nM on AKT1, 1000 to 10000 nM on AKT3 and 1000 to 10000 nM on AKT2.
`Cn1cc(C(=O)NCCO)c2oc(-c3ccc(C4(N)CCC4)cc3)c(-c3ccccc3)c2c1=O` [Example 120, 2-(4-(1-Aminocyclobutyl)phenyl)-N-(2-hydroxyethyl)-5-methyl-4-oxo-3-phenyl-4,5-dihydrofuro[3,2-c]pyridine-7-carboxamide]: the 50% inhibitory concentration (IC50) at AKT1 is 100 to 1000 nM; on AKT3, more than 10000 nM; on AKT2, 100 to 1000 nM.
For `COc1nc(NCCCO)nc2oc(-c3ccc(C4(N)CCC4)cc3)c(-c3ccccc3)c12` [Example 41, 3-((6-(4-(1-Aminocyclobutyl)phenyl)-4-methoxy-5-phenylfuro[2,3-d]pyrimidin-2-yl)amino)propan-1-ol], the half-inhibitory concentration (IC50) on AKT1 is not above 100 nM; on AKT3, more than 10000 nM; at AKT2, 100 to 1000 nM.
The matching figures for `N#Cc1cccc2c(-c3ccccc3)c(-c3ccc(C4(N)CNC4)cc3)oc12` [Example 30, 2-(4-(3-Aminoazetidin-3-yl)phenyl)-3-phenylbenzofuran-7-carbonitrile]: 100 to 1000 nM, more than 10000 nM and more than 10000 nM.
The matching figures for `C[C@@H](O)CNc1nc2oc(-c3ccc(C4(N)CCC4)cc3)c(-c3ccccc3)c2c(=O)n1C` [Example 62, (R)-6-(4-(1-Aminocyclobutyl)phenyl)-2-((2-hydroxypropyl)amino)-3-methyl-5-phenylfuro[2,3-d]pyrimidin-4(3H)-one]: 100 to 1000 nM, 1000 to 10000 nM and 100 to 1000 nM.
The matching figures for `NC1(c2ccc(-c3oc4ncc(C5CC5)nc4c3-c3ccccc3)cc2)CCC1` [Example 138, 1-(4-(2-Cyclopropyl-7-phenylfuro[2,3-b]pyrazin-6-yl)phenyl)cyclobutanamine]: 100 to 1000 nM, 1000 to 10000 nM and 100 to 1000 nM.
As for `N#Cc1ccc2oc(-c3ccc(C4(N)CCC4)cc3)c(-c3ccccc3)c2c1` [Example 6, 2-(4-(1-Aminocyclobutyl)phenyl)-3-phenylbenzofuran-5-carbonitrile], the IC50 on AKT1 is 1000 to 10000 nM; at AKT3, more than 10000 nM; on AKT2 it was 1000 to 10000 nM.
Turning to `CNc1nc2oc(-c3ccc(C4(N)CCC4)cc3)c(-c3ccccc3)c2c(=O)n1CC(F)(F)F` [Example 122, 6-(4-(1-Aminocyclobutyl)phenyl)-2-(methylamino)-5-phenyl-3-(2,2,2-trifluoroethyl)furo[2,3-d]pyrimidin-4(3H)-one], the figures for the IC50 on AKT1, at AKT3 and at AKT2 were 100 to 1000 nM, 1000 to 10000 nM and not above 100 nM, respectively.
In the case of `NC1(c2ccc(-c3oc4ncc(Cl)nc4c3-c3ccccc3)cc2)CCC1` [Example 134, 1-(4-(2-Chloro-7-phenylfuro[2,3-b]pyrazin-6-yl)phenyl)cyclobutanamine], the IC50 at AKT1 was 100 to 1000 nM; at AKT3, more than 10000 nM; at AKT2, 1000 to 10000 nM.
As to `COCCn1cnc2oc(-c3ccc(C4(N)CCC4)cc3)c(-c3ccccc3)c2c1=O` [Example 105, 6-(4-(1-Aminocyclobutyl)phenyl)-3-(2-methoxyethyl)-5-phenylfuro[2,3-d]pyrimidin-4(3H)-one, HCl], the IC50 on AKT1 is 1000 to 10000 nM; on AKT3, 1000 to 10000 nM; on AKT2, 100 to 1000 nM.
As to `N#CCn1cnc2oc(-c3ccc(C4(N)CCC4)cc3)c(-c3ccccc3)c2c1=O` [Example 101, 2-(6-(4-(1-Aminocyclobutyl)phenyl)-4-oxo-5-phenylfuro[2,3-d]pyrimidin-3(4H)-yl)acetonitrile], the half-maximal inhibitory concentration (IC50) on AKT1 was in the range of 100 to 1000 nM; at AKT3 it was 1000 to 10000 nM; at AKT2 it was 100 to 1000 nM.
